Source: US11607422B2, “Uttroside B and derivatives thereof as therapeutics for hepatocellular carcinoma” (Rajiv Gandhi Centre for Biotechnology, an Autonomous …, priority 2016, dated 2023)

Legend:
[1] = tested on: NF-κB in HepG2 cells; assay: Electrophoretic mobility shift assay of NF-κB; assay type: cell-based, human; details: HepG2 nuclear extract, EMSA
Description: Stocks of crude extracts and isolated compound of S. nigrum was prepared in DMSO for the in vitro studies and stored at −20° C. The DMSO concentration in all studies, including controls, was ≤0.2%. Cell viability assay was performed after 72 h of drug treatment while whole cell lysate preparation and cell cycle analysis were done after 24 h and 48 h of drug treatment. For studying NF-κB and AP-1, Uttroside B was incubated for 2 h before extraction.
Radiolabeling of oligonucleotide probes for electrophoretic mobility shift assay:HepG2 Cells were treated with Uttroside B for two hours, scraped and suspended in 150 μL of lysis buffer (10 mM HEPES(pH 7.9), 10 mM KCl, 0.1 mM EDTA, 0.1 mM EGTA, 1 mM DTT, 0.5 mMphenylmethylsulfonyl fluoride, 2 μg/mL leupeptin, 2 μg/mL aprotinin, 0.5 mg/ml benzamidine) for 30 min, after which 4.5 μl of 10% Nonidet P-40 was added. […]

[2] = tested on: A549; assay: MTT cell viability assay in A549 cells; assay type: cell-based; details: 72 h
Description: FIG. 2A is a graph comparison of IC50 of Uttroside B in a panel of cancer cells of different origin. The cancer cell lines HeLa, A375, HepG2, MDA-MB-231, HL 60, A549 and HCT116 were treated with Uttroside B as indicated, incubated for 72 h and the cell viability was assessed by MTT assay. FIG. 2B is a graph showing dose dependent effect of Uttroside B in the liver cancer cell lines and in normal immortalized hepatocytes. The liver cancer cell lines HepG2, Hep3B, SKHEP-1, Huh-7 and normal hepatocytes (Chang liver), were treated with Uttroside B incubated for 72 h and the cell viability was assessed by MTT assay. FIG. 2C is a graph comparison of IC50 of Uttroside B with sorafenib. HepG2 cells were treated with Uttroside B as indicated, incubated for 72 h, and the cell viability was assessed by MTT assay. […] The clones developed were counted and plotted as a graph. Colony containing more than four cells was counted as one clone. […]
MTT [3-(4,5-dimethylthiazole-2-yl)-2,5-diphenyltetrazolium bromide] assay is a standard colorimetric assay, suitable for analyzing proliferation, viability, and cytotoxicity. […] After overnight incubation, cells were treated with different concentrations of organic extracts (25-250 μg/ml) of S. nigrum and the isolated compound Uttroside B (250-1250 nM) for 72 h and cytotoxicity was measured. […]

[3] = tested on: HepG2 cells; assay: Acridine orange staining for acidic vesicular organelles; assay type: cell-based, human; details: HepG2, cytotoxic concentration, 24 h
Description: The presence of acidic vesicles, which are characteristics of autophagosome can be analyzed using this method. Acridine orange stains the nucleus green and the acidic vesicular organellae (AVOs) as red.^32 To detect the presence of AVOs in HepG2 cells, 5×10^3 were seeded in 96 well plates, and treated with Uttroside B and incubated for 24 h. The cells were rinsed with 1× PBS twice. The treated cells were then stained with acridine orange, which was added at a final concentration of 1 μg/mL and incubated for 15 min and immediately photographed using a fluorescent microscope.
FIG. 18 is a representative image showing that Uttroside B induces acidic vacuole formation in HepG2 cells by Acridine orange staining. To further confirm the autophagic induction by Uttroside B in HepG2 cells, the cells were exposed to cytotoxic concentration of Uttroside B for a period of 24 h and stained with Acridine orange dye. AO orange stains nucleus green and acidic vesicular organelle, mainly autophagosome, bright red. It crosses into acidic compartments and becomes protonated. The protonated dye stacks and stacked acridine orange emits in the red range.

Structure (SMILES): C[C@H](CC[C@@]1(O)O[C@H]2C[C@H]3[C@@H]4CC[C@H]5C[C@@H](O[C@@H]6O[C@H](CO)[C@H](O[C@@H]7O[C@H](CO)[C@@H](O)[C@H](O[C@@H]8OC[C@@H](O)[C@H](O)[C@H]8O)[C@H]7O[C@@H]7O[C@H](CO)[C@@H](O)[C@H](O)[C@H]7O)[C@H](O)[C@H]6O)CC[C@]5(C)[C@H]4CC[C@]3(C)[C@H]2[C@@H]1C)CO[C@@H]1O[C@H](CO)[C@@H](O)[C@H](O)[C@H]1O [Uttroside B]
- constitutive activation of NF-κB [1]: could not produce any significant down-regulation
- IC50 [2]: 1 µM
- acidic vacuole formation (Acridine orange) [3]: AO positivity, a preliminary indication of increased autophagosomes was clearly visible
